Results from patent US9611251B2, “Substituted piperidine compounds and their use as orexin receptor modulators” (Janssen Pharmaceutica NV, priority 2013, dated 2017).

How the values were obtained:
rat orexin 1 receptor = rat orexin 1 receptor (Rattus norvegicus, UniProt P56718); test: Rat orexin 1 receptor radioligand binding; conditions: rat orexin 1 receptor radioligand binding; averages of 2-20 runs; read-out: rOX1 Ki
Method in brief: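 Cell-suspension competition binding used 4 nM final tritiated thiazolyl-pyrrolidinyl-methanone radioligand in PBS, ≤0.1% DMSO, with 10 µM almorexant defining nonspecific binding. Filter-bound radioactivity was counted in triplicate. IC50 came from one-site competition fits and was converted to Ki using the predetermined Kd.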

human orexin 1 receptor = human orexin 1 receptor (Homo sapiens, UniProt O43613); test: Human orexin 1 receptor radioligand binding; conditions: human orexin 1 receptor radioligand binding; averages of 2-20 runs; read-out: hOX1 Ki
human orexin 2 receptor = human orexin 2 receptor (Homo sapiens (Human), UniProt O43614); test: Human orexin 2 receptor radioligand binding ([3H]-EMPA); conditions: averages of 2-20 runs, read-out: hOX2 Ki
Chain of human orexin 2 receptor (O43614 whole entry): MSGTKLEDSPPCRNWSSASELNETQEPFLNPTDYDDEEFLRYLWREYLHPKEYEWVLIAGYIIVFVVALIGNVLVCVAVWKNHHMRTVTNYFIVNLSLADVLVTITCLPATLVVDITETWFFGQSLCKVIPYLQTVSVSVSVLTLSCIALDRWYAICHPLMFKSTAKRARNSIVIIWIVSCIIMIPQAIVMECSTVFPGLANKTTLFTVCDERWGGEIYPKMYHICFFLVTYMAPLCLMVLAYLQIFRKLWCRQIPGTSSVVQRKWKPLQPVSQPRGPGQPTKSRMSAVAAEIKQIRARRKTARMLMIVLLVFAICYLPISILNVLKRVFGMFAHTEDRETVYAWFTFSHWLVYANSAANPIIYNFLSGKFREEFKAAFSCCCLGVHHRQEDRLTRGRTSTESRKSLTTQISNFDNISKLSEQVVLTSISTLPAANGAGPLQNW
Method in brief: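 Competition binding using homogenized HEK293 cells stably expressing human orexin 2 receptor, [3H]-EMPA at 2 nM final and ≤0.1% DMSO; nonspecific binding set with 10 μM almorexant. Filter-bound radioactivity counted by scintillation; one-site competition IC50 converted to Ki using pre-determined Kd, compounds run in triplicate.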

| Ki (rat orexin 1 receptor) [nM] | Ki (human orexin 1 receptor) [nM] | Ki (human orexin 2 receptor) [nM] | SMILES |
| --- | --- | --- | --- |
| 25 | 43 | 3900 | Cc1ccc(C(=O)N2CCC[C@@H](Oc3cnc(C(F)(F)F)cn3)[C@@H]2C)c(-n2nccn2)c1 [Example 113, (4-methyl-2-(2H-1,2,3-triazol-2-yl)phenyl)((2S,3R)-2-methyl-3-((5-(trifluoromethyl)pyrazin-2-yl)oxy)piperidin-1-yl)methanone] |
| 50 | 31 | 765 | C[C@H]1[C@H](Oc2ccc(C(F)(F)F)cn2)CCCN1C(=O)c1ccc(F)cc1-n1nccn1 [Example 147, (4-fluoro-2-(2H-1,2,3-triazol-2-yl)phenyl)((2S,3R)-2-methyl-3-((5-(trifluoromethyl)pyridin-2-yl)oxy)piperidin-1-yl)methanone] |
| 28 | 20 | 412 | Cc1cccc(C(=O)N2CCC[C@@H](Oc3ccc(C(F)(F)F)cn3)[C@@H]2C)c1-n1nccn1 [Example 152, (3-methyl-2-(2H-1,2,3-triazol-2-yl)phenyl)((2S,3R)-2-methyl-3-((5-(trifluoromethyl)pyridin-2-yl)oxy)piperidin-1-yl)methanone] |
| 7 | 5 | 175 | C[C@H]1[C@H](Nc2ccc(C(F)(F)F)cn2)CCCN1C(=O)c1cccc(F)c1-c1ncccn1 (relative stereo) [Example 189, (3-fluoro-2-(pyrimidin-2-yl)phenyl)((2S*,3R*)-2-methyl-3-((5-(trifluoromethyl)pyridin-2-yl)amino)piperidin-1-yl)methanone] |
| 67 | 34 | 1100 | C[C@H]1[C@H](Nc2cnc(C(F)(F)F)cn2)CCCN1C(=O)c1ccc(F)cc1-c1ncco1 (relative stereo) [Example 208, (4-fluoro-2-(oxazol-2-yl)phenyl)((2S*,3R*)-2-methyl-3-((5-(trifluoromethyl)pyrazin-2-yl)amino)piperidin-1-yl)methanone] |
| 25 | 15 | 473 | C[C@H]1[C@H](Oc2ccc(C(F)(F)F)cn2)CCCN1C(=O)c1ccccc1-c1ncccn1 [Example 143, ((2S,3R)-2-methyl-3-((5-(trifluoromethyl)pyridin-2-yl)oxy)piperidin-1-yl)(2-(pyrimidin-2-yl)phenyl)methanone] |
| 117 | 138 | 2500 | C[C@H]1[C@H](Oc2cnc(C(F)(F)F)cn2)CCCN1C(=O)c1cccc(F)c1-n1nccn1 [Example 125, (3-fluoro-2-(2H-1,2,3-triazol-2-yl)phenyl)((2S,3R)-2-methyl-3-((5-(trifluoromethyl)pyrazin-2-yl)oxy)piperidin-1-yl)methanone] |
| 49 | 27 | > 10000 | Cc1cnc(-n2nccn2)c(C(=O)N2CCC[C@@H](Oc3ncc(C(F)(F)F)cc3F)[C@@H]2C)c1 [Example 157, ((2S,3R)-3-((3-fluoro-5-(trifluoromethyl)pyridin-2-yl)oxy)-2-methylpiperidin-1-yl)(5-methyl-2-(2H-1,2,3-triazol-2-yl)pyridin-3-yl)methanone] |
| 59 | 77 | 4400 | C[C@H]1[C@H](Oc2ncc(C(F)(F)F)cn2)CCCN1C(=O)c1ccccc1-c1ncc(F)cn1 [Example 165, (2-(5-fluoropyrimidin-2-yl)phenyl)((2S,3R)-2-methyl-3-((5-(trifluoromethyl)pyrimidin-2-yl)oxy)piperidin-1-yl)methanone] |
| 120 | 124 | > 10000 | Cc1cnc(-c2ncccn2)c(C(=O)N2CCC[C@@H](Oc3ccc(C(F)(F)F)cn3)[C@@H]2C)c1 [Example 211, (5-methyl-2-(pyrimidin-2-yl)pyridin-3-yl)((2S,3R)-2-methyl-3-((5-(trifluoromethyl)pyridin-2-yl)oxy)piperidin-1-yl)methanone] |
| 29 | 25 | 951 | C[C@H]1[C@H](Oc2cnc(C(F)(F)F)cn2)CCCN1C(=O)c1ccccc1-c1ncccn1 [Example 168, ((2S,3R)-2-methyl-3-((5-(trifluoromethyl)pyrazin-2-yl)oxy)piperidin-1-yl)(2-(pyrimidin-2-yl)phenyl)methanone] |
| 15 | 18 | 598 | C[C@H]1[C@H](Oc2ccc(C(F)(F)F)cn2)CCCN1C(=O)c1cccc(F)c1-c1ncccn1 [Example 116, (3-fluoro-2-(pyrimidin-2-yl)phenyl)((2S,3R)-2-methyl-3-((5-(trifluoromethyl)pyridin-2-yl)oxy)piperidin-1-yl)methanone] |
| 192 | 269 | > 10000 | Cc1cnc(C(=O)N2CCC[C@@H](Oc3cnc(C(F)(F)F)cn3)[C@@H]2C)c(-n2nccn2)c1 [Example 105, ((2S,3R)-2-methyl-3-((5-(trifluoromethyl)pyrazin-2-yl)oxy)piperidin-1-yl)(5-methyl-3-(2H-1,2,3-triazol-2-yl)pyridin-2-yl)methanone] |
| 16 | 24 | 293 | C[C@H]1[C@H](Nc2ccc(C(F)(F)F)cn2)CCCN1C(=O)c1ncccc1-c1ncccn1 (relative stereo) [Example 265, ((2S*,3R*)-2-methyl-3-((5-(trifluoromethyl)pyridin-2-yl)amino)piperidin-1-yl)(3-(pyrimidin-2-yl)pyridin-2-yl)methanone] |
| 92 | 100 | > 10000 | Cc1ccc(C(=O)N2CCC[C@@H](N(C)c3ccc(C(F)(F)F)cn3)[C@@H]2C)c(-n2nccn2)n1 (relative stereo) [Example 188, (6-methyl-2-(2H-1,2,3-triazol-2-yl)pyridin-3-yl)((2S*,3R*)-2-methyl-3-(methyl(5-(trifluoromethyl)pyridin-2-yl)amino)piperidin-1-yl)methanone] |
| 93 | 176 | 5200 | COc1ccc(C(=O)N2CCC[C@@H](Nc3ccc(Cl)cn3)[C@@H]2C)c(-n2nccn2)c1 (relative stereo) [Example 181, ((2S*,3R*)-3-((5-chloropyridin-2-yl)amino)-2-methylpiperidin-1-yl)(4-methoxy-2-(2H-1,2,3-triazol-2-yl)phenyl)methanone] |
| 7 | 6 | 191 | COc1ccc(-n2nccn2)c(C(=O)N2CCC[C@@H](Nc3cnc(C(F)(F)F)cn3)[C@@H]2C)c1 (relative stereo) [Example 184, (5-methoxy-2-(2H-1,2,3-triazol-2-yl)phenyl)((2S*,3R*)-2-methyl-3-((5-(trifluoromethyl)pyrazin-2-yl)amino)piperidin-1-yl)methanone] |
| 47 | 30 | 1300 | C[C@H]1[C@H](Oc2ncc(C(F)(F)F)cc2F)CCCN1C(=O)c1ccccc1-c1ncc(F)cn1 [Example 156, ((2S,3R)-3-((3-fluoro-5-(trifluoromethyl)pyridin-2-yl)oxy)-2-methylpiperidin-1-yl)(2-(5-fluoropyrimidin-2-yl)phenyl)methanone] |
| 16 | 16 | 564 | C[C@H]1[C@H](Nc2nc3ccccc3o2)CCCN1C(=O)c1ccc(F)cc1-c1ncccn1 (relative stereo) [Example 206, ((2S*,3R*)-3-(benzo[d]oxazol-2-ylamino)-2-methylpiperidin-1-yl)(4-fluoro-2-(pyrimidin-2-yl)phenyl)methanone] |
| 24 | 18 | 5600 | Cc1cnc(-n2nccn2)c(C(=O)N2CCC[C@@H](Oc3ccc(C(F)(F)F)cn3)[C@@H]2C)c1 [Example 149, (5-methyl-2-(2H-1,2,3-triazol-2-yl)pyridin-3-yl)((2S,3R)-2-methyl-3-((5-(trifluoromethyl)pyridin-2-yl)oxy)piperidin-1-yl)methanone] |
| 23 | 22 | 620 | Cc1ccc(-n2nccn2)c(C(=O)N2CCC[C@@H](Oc3ncc(C(F)(F)F)cc3F)[C@@H]2C)n1 [Example 160, ((2S,3R)-3-((3-fluoro-5-(trifluoromethyl)pyridin-2-yl)oxy)-2-methylpiperidin-1-yl)(6-methyl-3-(2H-1,2,3-triazol-2-yl)pyridin-2-yl)methanone] |
| 100 | 68 | 1900 | C[C@H]1[C@H](Oc2cnc(C(F)(F)F)cn2)CCCN1C(=O)c1cc(F)ccc1-c1ncco1 [Example 179, (5-fluoro-2-(oxazol-2-yl)phenyl)((2S,3R)-2-methyl-3-((5-(trifluoromethyl)pyrazin-2-yl)oxy)piperidin-1-yl)methanone] |
| 124 | 188 | 4400 | C[C@H]1[C@H](Oc2ncc(C(F)(F)F)cn2)CCCN1C(=O)c1cc(F)ccc1-c1ncco1 [Example 175, (5-fluoro-2-(oxazol-2-yl)phenyl)((2S,3R)-2-methyl-3-((5-(trifluoromethyl)pyrimidin-2-yl)oxy)piperidin-1-yl)methanone] |
| 22 | 31 | 5100 | Cc1cnc(C(=O)N2CCC[C@@H](Oc3ccc(C(F)(F)F)cn3)[C@@H]2C)c(-n2nccn2)c1 [Example 111, ((2S,3R)-2-methyl-3-((5-(trifluoromethyl)pyridin-2-yl)oxy)piperidin-1-yl)(5-methyl-3-(2H-1,2,3-triazol-2-yl)pyridin-2-yl)methanone] |
| 34 | 29 | 1100 | Cc1cccc(C(=O)N2CCC[C@@H](Oc3cnc(C(F)(F)F)cn3)[C@@H]2C)c1-c1ncccn1 [Example 171, (3-methyl-2-(pyrimidin-2-yl)phenyl)((2S,3R)-2-methyl-3-((5-(trifluoromethyl)pyrazin-2-yl)oxy)piperidin-1-yl)methanone] |
